With `N#Cc1[nH]c2ccc([N+](=O)[O-])cc2c1-c1ccccc1`, the melting point is 242 to 254 °C.
Take `CC(C)(C)OC(=O)NC[C@H]1CC[C@H](C#N)CC1`: the melting point lay in the range of 100 to 101 °C.
The same measure for `COc1ccccc1N1CCN(CCn2cnc3sc(C(=O)N(C)C)c(C)c3c2=O)CC1`: 188 to 190 °C; for `CC(C)=Cc1ccc(-c2c(C(C)C)ccc(CO)c2C(C)C)nc1`: 93 to 95 °C; for `Cc1oc(-c2ccccc2)nc1COc1ccc(CCCCCC2OC(=O)NC2=O)cc1` (stereo not given): 120 to 121 °C.
The value for `BrCc1noc2cc3c(cc12)CCC3` was 69 to 71 °C; that for `CCOC(=O)c1sc(C)c2c1CCCC2=O` was 76 to 77 °C.
With `O=C1CCc2cccc(Oc3ccccc3Cl)c2O1`, the melting point lay in the range of 123 to 125 °C.
In turn, `Brc1ccc2cc(OCc3ccccc3)c(C34CC5CC(CC(C5)C3)C4)cc2c1` yielded a melting point of 150 to 151 °C.
`C#Cc1cccc(-n2ncc3c(NCc4ccc5c(c4)OCCO5)ncnc32)c1` showed a melting point of 161 °C.
As for `O=C1Nc2ccc(-c3cccc(Cl)c3)cc2C2(CCCC2)O1`, the melting point lay within 140 to 145 °C.
On to `CCCCc1nc(Cl)c(C=CC(=O)OCC)n1Cc1ccc(NC(=O)c2ccccc2C(=O)O)cc1`, for which the melting point was 180 to 181 °C.
For `N#CCC=C1c2ccccc2C=Cc2ccccc21`, the melting point lay within 95 to 101 °C.
The value for `COc1ccc(C(C#Cc2ccccc2)CC(=O)Nc2nccs2)cc1OC1CCCC1` (racemic) was 142 to 144 °C; that for `COc1cc(-c2cc(O)c(SCCc3ccccc3)c(=O)o2)ccc1OCc1ccccc1` was 114 to 115 °C.
In the case of `CCOC(=O)Cc1c(COC(C)=O)[nH]c(C(=O)OCc2ccccc2)c1C`, the melting point was 117 to 119 °C.
`CCCS(=O)(=O)c1cc([C@H]2CC[C@H](c3cc(OC)c(OC)c(OC)c3)O2)cc(OC)c1OCc1ccccc1` (relative stereo): the melting point was in the range of 176 to 177 °C.
The value for `COc1ccccc1-c1cc(C(=O)O)cc(-n2cnnn2)c1` was 214 to 215 °C; that for `CCOC(=O)C1(C(=O)OCC)CCC=C2C1CCC1=Cc3c(cnn3-c3ccc(F)cc3)CC12C` (stereo not given) was 133 to 135 °C.
In turn, `Brc1ccc(OC2CCN(CCc3c[nH]c4ccccc34)CC2)cc1` returned a melting point of 132 to 134 °C.
The value for `CCCOc1ccc(S(=O)(=O)NCCN(C)C)cc1-c1nc2cc3nc[nH]c3cc2c(=O)[nH]1` was 212 to 214 °C; that for `Cc1ccccc1C(=O)c1ccsc1C(=O)O` was 115 to 117 °C.
With `CCOC(=O)C(C(=O)C=CC(C)Oc1ccc(Oc2ccc(C(F)(F)F)cc2)cc1)C(=O)OCC` (stereo not given), the melting point was 52 to 55 °C.
The value for `CC(=O)OC1CSC(Oc2cnccc2C(F)(F)F)C(OC(C)=O)C1OC(C)=O` (stereo not given) was 198 °C; that for `COC(=O)c1cc2c(cc1C#Cc1ccccc1)NC(=O)CC(c1cccc(C#N)c1)=N2` was over 250 °C.
Compound `COCCOc1ccc(/C=C(\C)C(=O)NS(=O)(=O)c2cccc(Cl)c2)c(Oc2ncc(C(F)(F)F)cc2Cl)c1` returned a melting point of 89 to 92 °C.
The same measure for `c1cc2c3c(c1)[C@@H]1CCC[C@@H]1N3CCNC2`: 57 to 59 °C; for `CN(C(=O)OC(C)(C)C)C1CCN(c2nc(N3CCOCC3)nc(-n3c(C(F)F)nc4c(O)cccc43)n2)CC1`: 220 to 222 °C; for `Clc1c(-c2ccc(OCc3ccccc3)cc2)[nH]c2ccc(OCc3ccccc3)cc12`: 157 to 160 °C.
The same measure for `Cc1ccc(Cn2c(NC3CCNCC3)nc3cnccc32)o1`: 186 °C; for `COCCNC(=O)c1cccc(-c2cccc3c(F)c(Cc4cccc(C(F)(F)F)c4)sc23)c1`: 115 to 116 °C.
The value for `Cc1cc2c(cc1O)C(C)(C)CC1(CC(C)(C)c3cc(OCCCn4cccn4)c(C)cc3O1)O2` (stereo not given) was 239 to 241 °C; that for `COc1nc(C)cnc1N(C(=O)OCC(C)C)S(=O)(=O)c1cccnc1-c1ccc(C=O)cc1` was 154 to 156 °C; that for `O=c1c(Cl)c(N2CCOCC2)oc2ccccc12` was 127 to 128 °C.
In the case of `CN1C[C@@H](C(=O)OCc2ccccc2)NC1=O`, the melting point was in the range of 94 to 95 °C.
The value for `Cc1cccc(Cl)c1NC(=O)Nc1ccc(CC(=O)NC(CC(C)C)c2ncc(CCC(=O)O)s2)cc1` (stereo not given) was 160 to 162 °C; that for `Cc1nnc(-c2ccc3occ(-c4cnn(Cc5ccccc5C#N)c4)c3c2)o1` was 192 to 193 °C; that for `Cc1ccccc1C(=O)Nc1ccc(C(=O)N2CCc3cn(C)nc3-c3ccccc32)cc1` was 246 to 248 °C.
`O=C(N[C@H]1CCC[C@@H](CN2CC=C(c3ccccc3)CC2)C1)c1ccccc1`: the melting point is 200 to 204 °C.
The value for `COc1ncccc1-c1cc2cc(C(=O)NCCCN3CCOCC3)ccc2[nH]1` was 224 to 225 °C; that for `COc1cc2[nH]c(=O)c3c(c2cc1OC)CCN(C(=O)c1ccccc1)C3` was 290 to 297 °C; that for `CCCCOC(=O)NS(=O)(=O)CCc1c(C)nn(C)c1-n1ccc2cc(C(F)(F)F)cnc21` was 122 to 123 °C.
Turning to `CN(CCCCCCCCNC(=O)NCCSCc1csc(NC(=N)N)n1)CCC(c1ccc(Cl)cc1)c1ccccn1` (stereo not given), the melting point was 135 to 140 °C.
The compound `NNC(=O)c1ccc(OCc2ccccc2)c(Cl)c1` displayed a melting point of 168 to 171 °C.
On to `CC(=O)Nc1ccc(/C=C/C(=O)NCC(=O)Nc2ccc(Cl)c(COc3cccc4ccc(C)nc34)c2Cl)cn1`, for which the melting point lay within 272 to 282 °C.
The value for `CCOC(=O)c1ccc(OCCCN2C(=O)c3ccccc3C2=O)cc1` was 106 to 108 °C; that for `COc1ccc(-c2csc3ccc([N+](=O)[O-])c(C(=O)N4CCOCC4)c23)cc1OC` was 144 °C; that for `O=C(O)CCc1oc(-n2cncn2)nc1-c1ccc(Cl)cc1` was 168 to 169 °C.
As to `O=[N+]([O-])N=C1SCCN1Cc1ccncc1`, the melting point is 151 to 152 °C.
The same measure for `C=CC(=O)Oc1ccc(NS(C)(=O)=O)cc1`: 136 to 140 °C; for `O=C(CC(=S)S)c1ccc(Oc2ccccc2)cc1`: 78 °C.
The compound `N#CC1(N2CCC(O)CC2)CCSCC1` registered a melting point of 79 to 81 °C.
The same measure for `COc1ccc(CCC(C)N(Cc2ccccc2)CC(O)c2ccc(OCc3ccccc3)c(N)c2)cc1OC` (stereo not given): 115 °C; for `C1=C(CCc2ccccc2)CCN(Cc2nc3ccccc3[nH]2)C1`: 177 to 179 °C; for `CCCc1cc(C#N)sc1-c1ccc2c(c1)C(C)(C)OC(=S)N2`: 174 to 175 °C.
The same measure for `COc1ccc(-c2nnc(Nc3ccc(Cl)c(Cl)c3)s2)cc1OCc1ccccc1`: 223 to 224 °C; for `Cc1oc(-c2ccco2)nc1COc1ccc(CCl)cc1Br`: 125 to 126 °C; for `CC(C)(CSc1ccc(Cl)cc1)C(Cn1ccnc1)=NO`: 125 to 126 °C.
Take `O=c1nc(-c2cccc(SCc3ccccc3)n2)sc2ccccc12`: the melting point fell in the range of 227 to 228 °C.
Compound `COc1cc(Cl)c(N)cc1C(=O)N[C@H]1CCNC[C@H]1OC` (relative stereo) returned a melting point of 192 °C.
The same measure for `Nc1cccc2c1C(=O)c1c(N)cccc1C2=O`: 272 to 273 °C.
The compound `CCOc1cc(Cn2cc(CCC(=O)O)c(-c3ccccc3)c2)cc(OCc2csc(-c3cnccn3)n2)c1` yielded a melting point of 97 to 98 °C.
The same measure for `CC(C)Oc1ccc(SCCSc2ccc(OC(C)C)cc2)cc1`: 115 to 116 °C; for `NS(=O)(=O)c1ccc(NN=C2C(=O)Nc3cccc(Oc4ccccc4)c32)cc1`: over 250 °C; for `Cc1oc(-c2cccs2)nc1COc1ccc(CCCn2ccnc2)cc1`: 102 to 103 °C.
The same measure for `NC(=O)c1cn(CCOC(=O)Oc2ccccc2)nc1[N+](=O)[O-]`: 108 to 110 °C.
For the compound `Cc1ccccc1-c1ccc(C(=O)N2Cc3ccc(C(=O)NCc4ccc5c(c4)OCO5)n3Cc3ccccc32)cc1C`, the melting point lay in the range of 149 to 151 °C.
Consider `Cc1oc(-c2ccc(Cl)cc2)cc1C(=O)N[C@H](C)[C@](O)(Cn1cncn1)c1ccc(F)cc1F`, for which the melting point lay in the range of 189 to 190 °C.
`Cc1nnc2n1-c1ccc(Cl)cc1C(c1ccccc1)N2` (stereo not given) had a melting point of 262 to 265 °C.
`CCCCOc1c(CN2C(=O)c3ccccc3C2=O)n(CCC(=O)N2CCCC2)c(=O)c2cc(Cl)c(Cl)cc12` came in with a melting point of 222 °C.
On to `O=C(c1ccc(F)cc1)C1CCN(C(=O)CCc2ccc(OCc3ccccc3)cc2OCc2ccccc2)CC1`, for which the melting point was in the range of 140 to 141 °C.
In turn, `CCCCC(CC)COC(=O)C(C#N)=Cc1ccc(-c2nc3ccccc3o2)cc1` (stereo not given) returned a melting point of 84 to 85 °C.
The same measure for `CCOC(=O)c1c(C)cc(NC=O)c(C(=O)O)c1C`: 146 to 148 °C.
The value for `OCC12CC3CC(CC(C3)C1O)C2` (stereo not given) was 172 to 174 °C; that for `CCCCc1nc(Cl)c(CO)n1Cc1ccccc1Cl` was 134 to 135 °C.
The compound `O=C1C=CC(O)(c2cc3ccccc3o2)C=C1` registered a melting point of 106 to 108 °C.
On to `O=C(Nc1ccccc1)NN1CCCOC1=O`, for which the melting point lay in the range of 204 to 207 °C.
On to `COc1ccc(S(=O)(=O)Nc2c(C(=O)NO)cc(C)c(Cc3ccccc3)c2C#N)cc1`, for which the melting point was determined as 175 °C.
`CCOC(=O)C(=CNC1CC1)C(=O)c1cc(F)c(Cl)c(C#N)c1Cl` displayed a melting point of 65 to 67 °C.
Take `COc1ccc(Br)cc1C12CC3CC(CC(C3)C1)C2`: the melting point fell in the range of 138 to 139 °C.
Consider `O=C(Nc1ccc(-n2nc(C(F)(F)F)cc2C(F)(F)F)cc1)c1cccc(F)c1F`, for which the melting point is 147 to 149 °C.
Consider `CSc1nc(-c2ccc(F)cc2)c(-c2ccnc(Nc3ccccc3)c2)[nH]1`, for which the melting point was 228 °C.
`Cc1ccc(Cn2ccnc2)cc1` showed a melting point of 51 to 53 °C.
As to `COc1ccc(C(=C/C=C/C(=O)NCCCc2cccc3ccncc23)c2ccc(OC)cc2)cc1`, the melting point fell in the range of 115 to 118 °C.
The compound `CC12CCC3=C(CCc4cc(O)ccc43)C1CCC2=O` (stereo not given) showed a melting point of 225 to 227 °C.

For the origin of these results see a melting point compilation (Tetko et al.; mined from patent text by program, amines drawn as free bases though some values may be those of a salt).
